Test system: transgenic (mRen-2)27 rats
Test: Streptozotocin-diabetic Ren-2 rat model of diabetic complications
Format: in vivo
Conditions: administered i.v. at a dose of from 0.1 to 10 mg/kg
Description: Ren-2 rats (e.g. as disclosed in D. J. Kelly et al, Kidney Int, Vol 54, 1998, p343-352)
The effect of Compound A, B or C, on diabetic complications is tested in transgenic (mRen-2)27 rats (also called “Ren-2 rats”), model that develops hypertension and many of the structural and functional characteristics of human diabetic nephropathy when diabetes is induced by streptozotocin, resulting in a progressive disease with many of the structural, functional and molecular characteristics of human diabetic nephropathy. The progression of this disease is associated with an increase in renal and cardiac growth factors and extra cellular matrix accumulation.
The effect of the compounds of the invention on diabetic nephropathy may be studied with the Ren-2 rats model, as disclosed in D. J. Kelly et al, Diabetes, Vol 52, February 2003, p512-518: Diabetes is induced by injection of streptozotocin, 55 mg/kg. All diabetic rats receive insulin (human isophane) 2 units/day to promote body weight and reduce mortality. The experimental period continues for 16 weeks in Ren-2 rats to study advanced renal and cardiac disease. Rats are randomised to the following groups:
Group 1: non-diabetic Ren-2, no drug Group 2: non-diabetic Ren2, Compound C Group 3: non-diabetic Ren-2, Compound A Group 4: diabetic Ren-2 Group 5: diabetic Ren-2, drug Compound C, dose 1 Group 6: diabetic Ren-2, drug Compound A, dose 1 Group 7: diabetic Ren-2, drug Compound C, dose 2 Group 8: diabetic Ren-2, drug Compound A, dose 2 N=20 per group (160 rats) […]
The spatial distribution and quantitation of the immunohistochemistry by image analysis provide specific information regarding the cell type and location of disease progression. […]
The right kidney is snap frozen in liquid nitrogen and used for molecular biological experiments. Tissue and cell specific changes in expression may be quantifyed using immunohistochemistry with quantitative image analysis and real time PCR (ABI Prism 7700, Perkin Elmer Biosystems, Foster City, Calif.) with TaqMan, Such a PCR analysis is a technique well known by the one skilled in the art.

Compound: CN1CCN(c2nc(C3=C(c4c[nH]c5ccccc45)C(=O)NC3=O)c3ccccc3n2)CC1 [Compound A, 3-(1.H.-indol-3-yl)-4-[2-(4-methyl-piperazin-1-yl)-quinazolin-4-yl]-pyrrole-2,5-dione]
- effect on the diabetic complications: beneficial effect

Compound: Cc1cccc2c(C3=C(c4nc(N5CCNC6(CC6)C5)cc5ccccc45)C(=O)NC3=O)c[nH]c12 [Compound C, 3-[3-(4,7-Diaza-spiro[2,5]oct-7-yl)-isoquinolin-1-yl]-4-(7-methyl-1H-indol-3-yl)-pyrrole-2,5-dione]
- effect on the diabetic complications: beneficial effect

Compound: O=C1NC(=O)C(c2c[nH]c3ccccc23)=C1c1nc(N2CCNCC2)nc2ccccc12 [Compound B, 3-(1.H.-indol-3-yl)-4-[2-(piperazin-1-yl)-quinazolin-4-yl]-pyrrole-2,5-dione]
- effect on the diabetic complications: beneficial effect

Reference: patent US20110251203A1, “USE OF PKC INHIBITORS IN DIABETIC COMPLICATIONS” (priority 2006, published 2011)
